Assay results taken from US11840686B2, “Modulation of prekallikrein (PKK) expression” (Ionis Pharmaceuticals, Inc., priority 2013, dated 2023).
Strand notation (5' to 3'): a small letter for the sugar, then the base; units joined by * are phosphorothioate-linked, units joined directly phosphodiester-linked; [ ] holds rarer units or linkages, { } end groups; capitals alone tell only the bases. e = 2'-O-(2-methoxyethyl) (MOE); [5mC] = 5-methylcytosine; d = 2'-deoxy (DNA)

What follows are substances tested on human PKK mRNA (assay: Antisense inhibition of human PKK mRNA in HepaRG cells, 5,000 nM (Example 2)). Details: HepaRG cells, 5,000 nM antisense oligonucleotide; 5-10-5 gapmers; Table 16.
Assay type: cell-based
Method in brief: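 Percent inhibition of PKK mRNA is relative to untreated control, with qRT-PCR (probe set RTS3454) values adjusted to total RNA by RIBOGREEN. Oligonucleotides, fully phosphorothioate 2′-MOE gapmers, were delivered at 5,000 nM by electroporation into 20,000 HepaRG cells/well for about 24 h.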
With “547683 (antisense eA*e[5mC]*eT*eA*eT*dA*dT*d[5mC]*dA*d[5mC]*dT*dG*dT*d[5mC]*d[5mC]*eT*eA*eT*eA*eA) [compound 547683]” the “% inhibition” value was 33%. “546979 (eA*e[5mC]*eT*eG*eT*dT*dG*dT*d[5mC]*d[5mC]*dA*dT*dA*dG*d[5mC]*eA*eG*e[5mC]*eA*eT; antisense) [compound 546979]” was tested, and the “% inhibition” value was 71%. For “546578 (eG*eA*e[5mC]*eA*eG*dT*dG*dG*dG*d[5mC]*d[5mC]*dA*dG*dA*dG*e[5mC]*e[5mC]*eT*eT*eG; antisense) [compound 546578]”, the “% inhibition” value was 73%. In the case of “546912 (eA*e[5mC]*eA*eT*e[5mC]*dA*d[5mC]*dT*dG*dT*d[5mC]*d[5mC]*dT*dA*dT*eA*eA*e[5mC]*eT*eA; antisense) [compound 546912]”, the “% inhibition” value is reported as 26%.

Same assay, conditions: HepaRG cells, electroporation with 5,000 nM antisense oligonucleotide, approximately 24 hours, PKK mRNA by RT-PCR (RTS3454), relative to untreated control cells; Table 5 experiment
For “546141 (eG*eA*eA*eA*eT*dA*dA*dG*dT*dT*dG*d[5mC]*dT*dT*dG*e[5mC]*eT*eT*eG*eA; antisense) [compound 546141]”, the “% inhibition” value was 56%. “547311 (antisense e[5mC]*eA*e[5mC]*eT*eA*dT*d[5mC]*dT*dT*dT*d[5mC]*dA*dA*dG*dA*eA*eG*e[5mC]*eA*eA) [compound 547311]” was tested, and the “% inhibition” value was 71%. “547281 (antisense eT*eT*eG*e[5mC]*eT*dT*dG*dA*dA*dT*dA*dA*dA*dA*dT*e[5mC]*eA*eT*eT*e[5mC]) [compound 547281]” was tested, and the “% inhibition” value was 41%. In the case of “546164 (eT*eG*eA*eT*eT*dG*dA*dA*d[5mC]*dT*dT*dG*d[5mC]*dT*dG*eG*eA*eA*eG*eA; antisense) [compound 546164]”, the “% inhibition” value is reported as 33%. For “547296 (antisense eT*eG*e[5mC]*eA*e[5mC]*d[5mC]*dT*d[5mC]*dA*dT*d[5mC]*dT*dG*dG*d[5mC]*eA*eG*eT*eA*eT) [compound 547296]”, the “% inhibition” value was 72%. With “547272 (e[5mC]*eA*e[5mC]*eT*eT*dA*dA*dA*dA*dA*dT*dG*dA*dA*d[5mC]*eG*eG*eT*e[5mC]*eT; antisense) [compound 547272]” the “% inhibition” value was 82%.

Same assay, conditions: HepaRG cells, electroporation with 5,000 nM antisense oligonucleotide, approximately 24 hours, PKK mRNA by RT-PCR (RTS3454), relative to untreated control cells; Table 6 experiment
With “546186 (antisense eA*eT*eG*eT*e[5mC]*dT*d[5mC]*dG*dA*dT*dG*dG*d[5mC]*dA*dA*eG*e[5mC]*eA*e[5mC]*eT) [compound 546186]” the “% inhibition” value was 84%. In the case of “547339 (antisense eT*eA*eT*e[5mC]*eA*dA*d[5mC]*dT*d[5mC]*d[5mC]*dT*dT*dT*dA*dT*eA*eA*eA*eT*eG) [compound 547339]”, the “% inhibition” value is reported as 42%. In the case of “547322 (antisense e[5mC]*eT*eT*e[5mC]*eA*dA*dG*dG*dA*dA*dT*dG*dT*d[5mC]*d[5mC]*eA*eG*eA*eA*eA) [compound 547322]”, the “% inhibition” value is reported as 65%.

Same assay, conditions: HepaRG cells, electroporation, 5,000 nM antisense oligonucleotide, approx. 24 hours, primer probe set RTS3454, relative to untreated control cells; Table 11
In the case of “547497 (antisense eA*e[5mC]*eT*eG*e[5mC]*dT*dT*d[5mC]*dT*d[5mC]*dA*dT*dG*d[5mC]*dT*eG*eG*eT*eG*eA) [compound 547497]”, the “% inhibition” value is reported as 68%. For “546387 (eA*eG*e[5mC]*eG*eG*dG*d[5mC]*dT*dT*d[5mC]*dA*dG*d[5mC]*d[5mC]*dA*eG*eA*e[5mC]*eA*eT; antisense) [compound 546387]”, the “% inhibition” value was 77%. For “547528 (antisense e[5mC]*eA*e[5mC]*eA*eG*dT*d[5mC]*dA*dT*dG*dG*dA*dG*dA*dT*e[5mC]*eT*e[5mC]*eA*eG) [compound 547528]”, the “% inhibition” value was 78%. In the case of “547519 (antisense e[5mC]*e[5mC]*eA*eG*eA*d[5mC]*dA*dT*dT*dG*dT*d[5mC]*d[5mC]*dT*d[5mC]*eA*eG*e[5mC]*eA*eG) [compound 547519]”, the “% inhibition” value is reported as 76%.

Same assay, conditions: HepaRG cells, electroporation, 5,000 nM antisense oligonucleotide, approx. 24 hours, primer probe set RTS3454, relative to untreated control cells; Table 12
“546419 (eT*eT*e[5mC]*eT*eA*dA*dT*dG*dT*dG*dG*d[5mC]*dA*d[5mC]*dT*eG*e[5mC]*eA*eG*eG; antisense) [compound 546419]” was tested, and the “% inhibition” value was 65%. For “546690 (e[5mC]*eT*e[5mC]*eT*eG*d[5mC]*dT*dG*dG*dT*dT*dT*dT*dA*dG*eA*e[5mC]*e[5mC]*eA*e[5mC]; antisense) [compound 546690]”, the “% inhibition” value was 44%. For “546705 (e[5mC]*e[5mC]*e[5mC]*e[5mC]*eT*dG*dT*dA*dG*dT*dT*dG*dG*d[5mC]*dT*eG*eT*eG*eG*eT; antisense) [compound 546705]”, the “% inhibition” value was 66%. With “547531 (antisense eT*eT*eA*eT*eT*dT*d[5mC]*dA*d[5mC]*dA*dA*d[5mC]*dA*d[5mC]*dA*e[5mC]*eA*eG*eT*e[5mC]) [compound 547531]” the “% inhibition” value was 69%.

Same assay, conditions: Table 7; HepaRG cells, electroporation with 5,000 nM antisense oligonucleotide, approx. 24 hours; PKK mRNA by RT-PCR (RTS3454), relative to untreated control cells
With “546220 (antisense eT*eA*eG*eG*eT*dG*d[5mC]*dA*dG*dA*dT*dG*dG*dT*d[5mC]*e[5mC]*eG*eA*e[5mC]*eA) [compound 546220]” the “% inhibition” value was 71%. With “546224 (antisense eT*eA*eG*eA*eA*dT*dG*dT*dA*dA*dA*dG*dA*dA*dG*eA*eG*eG*e[5mC]*eA) [compound 546224]” the “% inhibition” value was 65%.

Same assay, conditions: Table 8; HepaRG cells, electroporation with 5,000 nM antisense oligonucleotide, approx. 24 hours; PKK mRNA by RT-PCR (RTS3454), relative to untreated control cells
In the case of “546252 (eT*e[5mC]*eT*eT*eG*dG*d[5mC]*dA*dA*dA*d[5mC]*dA*dT*dT*d[5mC]*eA*e[5mC]*eT*e[5mC]*e[5mC]; antisense) [compound 546252]”, the “% inhibition” value is reported as 73%. With “546293 (antisense eG*e[5mC]*e[5mC]*eT*e[5mC]*dT*dG*dA*dG*d[5mC]*dT*dG*dT*d[5mC]*dA*eG*e[5mC]*eT*eT*e[5mC]) [compound 546293]” the “% inhibition” value was 64%. “546284 (antisense e[5mC]*eA*e[5mC]*eA*eA*dT*d[5mC]*dT*d[5mC]*dA*dA*dA*dG*dA*dG*eT*eA*eA*e[5mC]*e[5mC]) [compound 546284]” was tested, and the “% inhibition” value was 89%. With “547424 (eA*eG*eA*eG*e[5mC]*dT*d[5mC]*d[5mC]*d[5mC]*dT*dT*dG*dT*dG*dT*e[5mC]*e[5mC]*e[5mC]*eA*eT; antisense) [compound 547424]” the “% inhibition” value was 90%.

Same assay, conditions: Table 9 experiment; HepaRG cells, 20,000 cells per well, electroporation with 5,000 nM antisense oligonucleotide, approx. 24 hours; PKK mRNA by RT-PCR (RTS3454), relative to untreated control cells
“546317 (antisense eA*eG*eG*eA*eG*d[5mC]*d[5mC]*dT*dG*dG*dA*dG*dT*dT*dT*eT*eA*eT*e[5mC]*eA) [compound 546317]” was tested, and the “% inhibition” value was 12%. “547480 (antisense eT*eT*e[5mC]*eT*eT*dT*dA*dT*dA*dG*d[5mC]*d[5mC]*dA*dG*d[5mC]*eA*e[5mC]*eA*eG*eA) [compound 547480]” was tested, and the “% inhibition” value was 60%. “547485 (antisense e[5mC]*eA*eA*eA*e[5mC]*dT*dA*dA*dG*dG*dG*dA*d[5mC]*d[5mC]*dA*e[5mC]*e[5mC]*eT*eG*eA) [compound 547485]” was tested, and the “% inhibition” value was 49%. “546319 (antisense e[5mC]*eA*eG*eT*eG*dT*dA*dA*dT*dT*d[5mC]*dA*dA*dA*dG*eG*eA*eG*e[5mC]*e[5mC]) [compound 546319]” was tested, and the “% inhibition” value was 50%. For “547458 (antisense eT*eA*eT*e[5mC]*eA*dA*dG*dG*d[5mC]*dG*dA*dT*dA*dT*d[5mC]*eA*eT*eG*eA*eT) [compound 547458]”, the “% inhibition” value was 84%.

Same assay, conditions: Table 10 experiment; HepaRG cells, 20,000 cells per well, electroporation with 5,000 nM antisense oligonucleotide, approx. 24 hours; PKK mRNA by RT-PCR (RTS3454), relative to untreated control cells
“546317 (antisense eA*eG*eG*eA*eG*d[5mC]*d[5mC]*dT*dG*dG*dA*dG*dT*dT*dT*eT*eA*eT*e[5mC]*eA) [compound 546317]” was tested, and the “% inhibition” value was 31%. With “547480 (antisense eT*eT*e[5mC]*eT*eT*dT*dA*dT*dA*dG*d[5mC]*d[5mC]*dA*dG*d[5mC]*eA*e[5mC]*eA*eG*eA) [compound 547480]” the “% inhibition” value was 49%. In the case of “547485 (antisense e[5mC]*eA*eA*eA*e[5mC]*dT*dA*dA*dG*dG*dG*dA*d[5mC]*d[5mC]*dA*e[5mC]*e[5mC]*eT*eG*eA) [compound 547485]”, the “% inhibition” value is reported as 66%. In the case of “546319 (antisense e[5mC]*eA*eG*eT*eG*dT*dA*dA*dT*dT*d[5mC]*dA*dA*dA*dG*eG*eA*eG*e[5mC]*e[5mC]) [compound 546319]”, the “% inhibition” value is reported as 61%. “547458 (antisense eT*eA*eT*e[5mC]*eA*dA*dG*dG*d[5mC]*dG*dA*dT*dA*dT*d[5mC]*eA*eT*eG*eA*eT) [compound 547458]” was tested, and the “% inhibition” value was 64%.

Same assay, conditions: Table 13; human PKK mRNA in HepaRG cells; 5-10-5 gapmers
For “547571 (eA*eA*eA*eT*eG*dA*d[5mC]*dA*d[5mC]*d[5mC]*dA*dA*dA*dA*dT*eT*eG*eA*eG*eT; antisense) [compound 547571]”, the “% inhibition” value was 14%. With “546804 (eA*e[5mC]*eA*eT*eG*dA*d[5mC]*dT*d[5mC]*d[5mC]*dA*dG*dT*dG*dA*eT*eG*eG*eA*eT; antisense) [compound 546804]” the “% inhibition” value was 57%. In the case of “547563 (eG*eT*eG*eG*eG*dA*dT*d[5mC]*dA*dG*dA*dG*dA*dA*dT*eG*eA*e[5mC]*eT*eA; antisense) [compound 547563]”, the “% inhibition” value is reported as 48%.

Same assay, conditions: human PKK mRNA in HepaRG cells; 5-10-5 gapmers; Table 14
“547595 (antisense eA*e[5mC]*eT*eA*eG*dT*dT*dT*d[5mC]*d[5mC]*dT*dA*dT*dA*dA*e[5mC]*eT*eA*eT*eA) [compound 547595]” was tested, and the “% inhibition” value was 21%.

Same assay, conditions: human PKK mRNA, HepaRG cells, 5,000 nM antisense oligonucleotide, Table 18
For “548762 (antisense eT*e[5mC]*eT*eA*dA*d[5mC]*dA*dG*dT*dA*dT*d[5mC]*dA*e[5mC]*eT*eG*eT) [compound 548762]”, the “% inhibition” value was 16%. With “548730 (DNA eT*eG*eT*eA*d[5mC]*dT*dA*dG*dT*dT*dT*d[5mC]*d[5mC]*dT*eA*eT*eA; antisense) [compound 548730]” the “% inhibition” value was 0%. With “548729 (DNA eG*eT*eA*e[5mC]*dT*dA*dG*dT*dT*dT*d[5mC]*d[5mC]*dT*dA*eT*eA*eA; antisense) [compound 548729]” the “% inhibition” value was 13%. With “548775 (antisense eT*e[5mC]*e[5mC]*eT*dA*dT*dA*dA*d[5mC]*dT*dA*dT*dA*eA*e[5mC]*eA*eG) [compound 548775]” the “% inhibition” value was 0%.

Same assay, conditions: human PKK mRNA, HepaRG cells; 5-10-5 motif oligonucleotides targeting SEQ ID NO: 1 and 10
For “547670 (eT*eA*e[5mC]*eA*eA*d[5mC]*dT*dA*dT*dA*dA*d[5mC]*dA*dG*dT*eA*eT*e[5mC]*eA*e[5mC]; antisense) [compound 547670]”, the “% inhibition” value was 0%. In the case of “547644 (eT*eA*eT*e[5mC]*eA*d[5mC]*dT*dG*dT*d[5mC]*d[5mC]*dT*dA*dT*dA*eA*e[5mC]*eT*eA*eT; antisense) [compound 547644]”, the “% inhibition” value is reported as 51%.
